Laboratory results: patent US20220306695A1, “COMPSTATIN ANALOGUES AND THEIR MEDICAL USES” (priority 2019, published 2022)
Starred links: 1 amine or outer side, 2 acyl side, 3 side chain; linkers in the order of their positions; H or OH if unused. Positions of bridges follow the written chain, without caps; N, C: chain ends. Non-standard residues stand in square brackets, D forms with d. Residues, ends and D or L forms follow the SMILES beside them. Groups on a side chain read outwards from the residue. *: point of attachment. Trp(1-Me) = Cn1cc(C[C@H](N)C(=O)O)c2ccccc21; Abu(4-yl) = O=C([C@H](CC[*:3])N[*:1])[*:2]; C18 diacid = O=C(O)CCCCCCCCCCCCCCCCC(=O)*; C16 diacid = O=C(O)CCCCCCCCCCCCCCC(=O)*; γGlu = O=C(O)[C@H](CCC(=O)[*:2])N[*:1]; AEEA = NCCOCCOCC(=O)O; Sar = CNCC(=O)O

These compounds were tested on classical complement pathway (assay: In vitro haemolysis assay (inhibition of classical complement pathway)). Details: Table 3; human serum, sensitized sheep red blood cells; read-out: IC50[nM], in vitro analysis of inhibition of hemolysis.
Assay type: cell-based, human
Summary of the method: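 Serially diluted compound (9 points) was preincubated 15 min at room temperature with diluted human serum, titrated per batch to give 70-90% maximal haemolysis, in Tris/casein buffer pH 7.4 with Mg2+/Ca2+. Antibody-sensitized sheep erythrocytes were then added for 30 min at 37° C, and the reaction was stopped with EDTA. Haemolysis was read at A405, with IC50 from 4PL fit.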
For `CC[C@H](C)[C@@H]1NC(=O)[C@@H](NC(=O)[C@H](Cc2ccccc2)NC(=O)[C@H](CCC(=O)O)NC(C)=O)CSSC[C@@H](C(=O)N(C)CC(=O)N[C@@H](CCC(=O)O)C(=O)N[C@@H](C)C(=O)NCCOCCOCC(=O)NCCOCCOCC(=O)N[C@@H](CCCCNC(=O)CC[C@H](NC(=O)CNC(=O)CC[C@H](NC(=O)CCCCCCCCCCCCCCCCC(=O)O)C(=O)O)C(=O)O)C(N)=O)NC(=O)[C@H](CCCNC(=N)N)NC(=O)[C@H](Cc2c[nH]cn2)NC(=O)[C@H](CCC(=O)O)NC(=O)CNC(=O)[C@H](Cc2c[nH]c3ccccc23)NC(=O)[C@H](CC(=O)O)NC(=O)[C@H](CCC(N)=O)NC(=O)[C@H](Cc2cn(C)c3ccccc23)NC1=O` [Compound 145] (Ac-EFCI[Trp(1-Me)]QDWGEHRC[Sar]EA[AEEA][AEEA]K([γGlu-Gly-γGlu-C18 diacid])-NH2; disulfide 3-13), the IC50 was less than 100 nM.
In the case of `CC[C@H](C)[C@@H]1NC(=O)[C@@H](NC(=O)[C@H](Cc2ccccc2)NC(=O)[C@H](CCC(=O)O)NC(=O)CNC(C)=O)CSCC[C@@H](C(=O)N(C)CC(=O)N[C@@H](CCC(=O)O)C(=O)N[C@@H](C)C(=O)N[C@@H](CCC(=O)O)C(=O)NCCOCCOCC(=O)NCCOCCOCC(=O)N[C@@H](CCCCNC(=O)CC[C@H](NC(=O)CNC(=O)CC[C@H](NC(=O)CCCCCCCCCCCCCCCCC(=O)O)C(=O)O)C(=O)O)C(N)=O)NC(=O)[C@H](CCCNC(=N)N)NC(=O)[C@H](Cc2c[nH]cn2)NC(=O)[C@H](CCC(=O)O)NC(=O)CN(C)C(=O)[C@H](Cc2c[nH]c3ccccc23)NC(=O)[C@H](CC(=O)O)NC(=O)[C@H](CCC(N)=O)NC(=O)[C@H](Cc2cn(C)c3ccccc23)NC1=O` [Compound 149, Ac-GEFA(1)I[1-Me-Trp]QDW[Sar]EHRhC(1)[Sar]EAE[Peg3][Peg3]-K([17-carboxy-heptadecanoyl][γGlu]G[γGlu])-NH2] (Ac-GEFCI[Trp(1-Me)]QDW[Sar]EHR[Abu(4-yl)][Sar]EAE[AEEA][AEEA]K([γGlu-Gly-γGlu-C18 diacid])-NH2; thioether 4-14), the IC50 is reported as less than 100 nM.
`CC[C@H](C)[C@@H]1NC(=O)[C@@H](NC(=O)[C@H](Cc2ccccc2)NC(=O)[C@H](CCC(=O)O)NC(=O)[C@H](CO)NC(C)=O)CSCC[C@@H](C(=O)N(C)CC(=O)N[C@@H](CCC(=O)O)C(=O)NCC(=O)N[C@@H](C)C(=O)N[C@@H](CCCCNC(=O)COCCOCCNC(=O)CC[C@H](NC(=O)COCCOCCNC(=O)CNC(=O)CC[C@H](NC(=O)CCCCCCCCCCCCCCCCC(=O)O)C(=O)O)C(=O)O)C(N)=O)NC(=O)[C@H](CCCNC(=N)N)NC(=O)[C@H](Cc2c[nH]cn2)NC(=O)[C@H](CCC(=O)O)NC(=O)CNC(=O)[C@H](Cc2c[nH]c3ccccc23)NC(=O)[C@H](CC(=O)O)NC(=O)[C@H](CCC(N)=O)NC(=O)[C@H](Cc2cn(C)c3ccccc23)NC1=O` [Compound 154, Ac-SEFA(1)I[1-Me-Trp]QDWGEHRhC(1)[Sar]EGA-K([17-carboxy-heptadecanoyl][γGlu]G[Peg3][γGlu][Peg3])-NH2] (Ac-SEFCI[Trp(1-Me)]QDWGEHR[Abu(4-yl)][Sar]EGAK([AEEA-γGlu-AEEA-Gly-γGlu-C18 diacid])-NH2; thioether 4-14) was tested, and the IC50 was less than 100 nM.
`CC[C@H](C)[C@@H]1NC(=O)[C@@H](NC(=O)[C@H](Cc2ccccc2)NC(=O)[C@H](CCC(=O)O)NC(=O)CNC(C)=O)CSCC[C@@H](C(=O)N(C)CC(=O)N[C@@H](CCC(=O)O)C(=O)NCC(=O)N[C@@H](CCC(=O)O)C(=O)NCCOCCOCC(=O)N[C@@H](CCC(=O)O)C(=O)N[C@@H](CO)C(=O)N[C@@H](CCCCNC(=O)CC[C@H](NC(=O)CNC(=O)CC[C@H](NC(=O)CCCCCCCCCCCCCCCCC(=O)O)C(=O)O)C(=O)O)C(N)=O)NC(=O)[C@H](CCCNC(=N)N)NC(=O)[C@H](Cc2c[nH]cn2)NC(=O)[C@H](CCC(=O)O)NC(=O)CNC(=O)[C@H](Cc2c[nH]c3ccccc23)NC(=O)[C@H](CCC(=O)O)NC(=O)[C@H](CCC(N)=O)NC(=O)[C@H](Cc2cn(C)c3ccccc23)NC1=O` [Compound 155, Ac-GEFA(1)I[1-Me-Trp]QEWGEHRhC(1)[Sar]EGE[Peg3]ES-K([17-carboxy-heptadecanoyl][γGlu]G[γGlu])-NH2] (Ac-GEFCI[Trp(1-Me)]QEWGEHR[Abu(4-yl)][Sar]EGE[AEEA]ESK([γGlu-Gly-γGlu-C18 diacid])-NH2; thioether 4-14) gave an IC50 of less than 100 nM.
`CC[C@H](C)[C@@H]1NC(=O)[C@@H](NC(=O)[C@H](Cc2ccccc2)NC(=O)[C@H](CCC(=O)O)NC(=O)[C@H](CO)NC(C)=O)CSCC[C@@H](C(=O)N[C@H](C(=O)N[C@@H](CCC(=O)O)C(=O)NCC(=O)N[C@@H](CCC(=O)O)C(=O)NCC(=O)NCC(=O)NCC(=O)N[C@@H](CCCCNC(=O)CC[C@H](NC(=O)CNC(=O)CC[C@H](NC(=O)CCCCCCCCCCCCCCCCC(=O)O)C(=O)O)C(=O)O)C(N)=O)[C@@H](C)O)NC(=O)[C@H](CCCNC(=N)N)NC(=O)[C@H](Cc2c[nH]cn2)NC(=O)[C@H](CCC(=O)O)NC(=O)CNC(=O)[C@H](Cc2c[nH]c3ccccc23)NC(=O)[C@H](CC(=O)O)NC(=O)[C@H](CCC(N)=O)NC(=O)[C@H](Cc2cn(C)c3ccccc23)NC1=O` [Compound 157, Ac-SEFA(1)I[1-Me-Trp]QDWGEHRhC(1)TEGEGGG-K([17-carboxy-heptadecanoyl][γGlu]G[γGlu])-NH2] (Ac-SEFCI[Trp(1-Me)]QDWGEHR[Abu(4-yl)]TEGEGGGK([γGlu-Gly-γGlu-C18 diacid])-NH2; thioether 4-14) gave an IC50 of less than 100 nM.
`CC[C@H](C)[C@@H]1NC(=O)[C@@H](NC(=O)[C@H](Cc2ccccc2)NC(=O)[C@H](CCC(=O)O)NC(C)=O)CSCC[C@@H](C(=O)N(C)CC(=O)N[C@@H](CCC(=O)O)C(=O)N[C@@H](C)C(=O)NCCOCCOCC(=O)NCCOCCOCC(=O)N[C@@H](CCCCNC(=O)CC[C@H](NC(=O)CNC(=O)CC[C@H](NC(=O)CCCCCCCCCCCCCCCCC(=O)O)C(=O)O)C(=O)O)C(N)=O)NC(=O)[C@H](CCCNC(=N)N)NC(=O)[C@H](Cc2c[nH]cn2)NC(=O)[C@H](CCC(=O)O)NC(=O)CNC(=O)[C@H](Cc2c[nH]c3ccccc23)NC(=O)[C@H](CCC(=O)O)NC(=O)[C@H](CCC(N)=O)NC(=O)[C@H](Cc2cn(C)c3ccccc23)NC1=O` [Compound 158, Ac-EFA(1)I[1-Me-Trp]QEWGEHRhC(1)[Sar]EA[Peg3][Peg3]-K([17-carboxy-heptadecanoyl][γGlu]G[γGlu])-NH2] (Ac-EFCI[Trp(1-Me)]QEWGEHR[Abu(4-yl)][Sar]EA[AEEA][AEEA]K([γGlu-Gly-γGlu-C18 diacid])-NH2; thioether 3-13) was tested, and the IC50 was less than 250 nM.
Compound `CC[C@H](C)[C@@H]1NC(=O)[C@@H](NC(=O)[C@H](Cc2ccc(O)cc2)NC(=O)[C@H](C)NC(=O)[C@H](CO)NC(=O)CNC(=O)[C@H](CCC(=O)O)NC(C)=O)CSCC[C@@H](C(=O)N(C)CC(=O)N[C@@H](CCC(=O)O)C(=O)N[C@@H](CCCCN)C(=O)N[C@@H](CCC(=O)N[C@@H](CCCCNC(=O)COCCOCCNC(=O)COCCOCCNC(=O)CC[C@H](NC(=O)CCCCCCCCCCCCCCCCC(=O)O)C(=O)O)C(N)=O)C(=O)O)NC(=O)[C@H](CCCNC(=N)N)NC(=O)[C@H](Cc2c[nH]cn2)NC(=O)[C@H](CCC(=O)O)NC(=O)CNC(=O)[C@H](Cc2c[nH]c3ccccc23)NC(=O)[C@H](CC(=O)O)NC(=O)[C@H](CCC(N)=O)NC(=O)[C@H](Cc2cn(C)c3ccccc23)NC1=O` [Compound 159, Ac-EGSAYA(1)I[1-Me-Trp]QDWGEHRhC(1)[Sar]EK[γGlu]-K([17-carboxy-heptadecanoyl][γGlu][Peg3][Peg3])-NH2] (Ac-EGSAYCI[Trp(1-Me)]QDWGEHR[Abu(4-yl)][Sar]EK[γGlu]K([AEEA-AEEA-γGlu-C18 diacid])-NH2; thioether 6-16) has an IC50 of less than 100 nM.
Compound `CC[C@H](C)[C@@H]1NC(=O)[C@@H](NC(=O)[C@H](Cc2ccccc2)NC(=O)[C@H](CCC(=O)O)NC(=O)[C@H](CO)NC(C)=O)CSCC[C@@H](C(=O)N(C)CC(=O)N[C@@H](CCC(=O)O)C(=O)NCC(=O)N[C@@H](CCC(=O)O)C(=O)NCCOCCOCC(=O)NCCOCCOCC(=O)N[C@@H](CCCCNC(=O)CC[C@H](NC(=O)CNC(=O)CC[C@H](NC(=O)CCCCCCCCCCCCCCC(=O)O)C(=O)O)C(=O)O)C(N)=O)NC(=O)[C@H](CCCNC(=N)N)NC(=O)[C@H](Cc2c[nH]cn2)NC(=O)[C@H](CCC(=O)O)NC(=O)CNC(=O)[C@H](Cc2c[nH]c3ccccc23)NC(=O)[C@H](CC(=O)O)NC(=O)[C@H](CCC(N)=O)NC(=O)[C@H](Cc2cn(C)c3ccccc23)NC1=O` [Compound 160, Ac-SEFA(1)I[1-Me-Trp]QDWGEHRhC(1)[Sar]EGE[Peg3][Peg3]-K([15-carboxy-pentadecanoyl][γGlu]G[γGlu])-NH2] (Ac-SEFCI[Trp(1-Me)]QDWGEHR[Abu(4-yl)][Sar]EGE[AEEA][AEEA]K([γGlu-Gly-γGlu-C16 diacid])-NH2; thioether 4-14) has an IC50 of less than 100 nM.
With `CC[C@H](C)[C@@H]1NC(=O)[C@@H](NC(=O)[C@H](Cc2ccccc2)NC(=O)[C@H](CCC(=O)O)NC(=O)[C@H](CO)NC(C)=O)CSCC[C@@H](C(=O)N(C)CC(=O)N[C@@H](CCC(=O)O)C(=O)NCCOCCOCC(=O)NCCOCCOCC(=O)N[C@@H](CCCCNC(=O)CC[C@H](NC(=O)CNC(=O)CC[C@H](NC(=O)CCCCCCCCCCCCCCCCC(=O)O)C(=O)O)C(=O)O)C(=O)O)NC(=O)[C@H](CCCNC(=N)N)NC(=O)[C@H](Cc2c[nH]cn2)NC(=O)[C@H](CCC(=O)O)NC(=O)CN(C)C(=O)[C@H](Cc2c[nH]c3ccccc23)NC(=O)[C@H](CC(=O)O)NC(=O)[C@H](CCC(N)=O)NC(=O)[C@H](Cc2cn(C)c3ccccc23)NC1=O` [Compound 162, Ac-SEFA(1)I[1-Me-Trp]QDW[Sar]EHRhC(1)[Sar]E[Peg3][Peg3]-K([17-carboxy-heptadecanoyl][γGlu]G[γGlu])-OH] (Ac-SEFCI[Trp(1-Me)]QDW[Sar]EHR[Abu(4-yl)][Sar]E[AEEA][AEEA]K([γGlu-Gly-γGlu-C18 diacid])-OH; thioether 4-14) the IC50 was less than 100 nM.
